According to patent US20230063100A1, “VETERINARY ANTI-PROLACTIN COMPOSITION FOR RUMINANTS USED BY INTRAMAMMARY ADMINISTRATION” (Ceva Santé Animale, priority 2020, published 2023):

Legend:
[1] = Pharmacokinetics of cabergoline in plasma after IM administration, 5.6 mg/cow (comparative study); type: in vivo; conditions: bovine, n=6, plasma
dairy cow [2] = assay: Field-controlled study (n=106), IM route, decrease of milk production; type: in vivo
Description: Extrapolation of the dose-effect relationship, with an IM dose of 7.5 μg/kg gave a predicted effect on milk production reduction of −43%.

[3] = Blood calcium concentration after IM cabergoline 5.6 mg/cow (previous studies); type: in vivo; conditions: versus negative control group
Description: Said studies were conducted in comparison versus a negative control group, and blood calcium decrease was monitored and well identified: A calcium decrease was observed as soon as 2 to 3 hours post-treatment, maximal between 6 and 12 hours and return to normal after 24 hours.
It is important to note that, in the study of example 2, the benefit regarding a less decrease of blood calcium concentration was obtained, despite a less quantity of calcium supplied by food, when compared to the IM studies 1 and 2. In these last 2 IM studies, 150 g of calcium/day/cow was provided through a total or partial mixed ration, whereas in the IMM study of example 2 only 50 g of calcium was provided via the concentrate (7 kg/day/cow at 0.7% of Ca) and a remaining part via the hay given ad libidum. Although the exact quantity of Ca provided by the hay was unknown, it was surely less than in the 2 IM studies, because, • i) the content of calcium in the hay is generally lower than concentrates, usually around 0.3% • ii) the actual hay dry matter intake could be estimated around 13 to 15 kg for the cows included in example 2

[4] = Blood calcium concentration after IMM cabergoline at dry-off (Example 2.3); type: in vivo, cow
Source text: (§1) 10 lactating cows (9 Prim'holstein and 1 Brown Swiss) were included in this study.
No feed restriction was put in place within the 3 weeks preceding the D0 dry-off and after. Animal had free access to water and hay throughout the study. Each cow was given 7 kg/day of an antibiotic free concentrate feed for lactating cow until D0 dry off. After dry-off each cow was given 7 kg/day of an antibiotic free concentrate for growing cattle.

dairy cow [5] = assay: Previous IM dose-effect study of cabergoline on milk production reduction (comparative); type: in vivo; conditions: extrapolation of the dose-effect relationship to an IM dose of 7.5 μg/kg
Source text: The obtained results are the following:

[6] = Pharmacokinetics of cabergoline in plasma after IMM administration (Example 2.2); type: in vivo, cow; conditions: female, Prim'holstein and Brown Swiss, bovine, 5.4 mg/udder, n=5, plasma
Source text: as §1

dairy cow [7] = assay: Delta ITP at dry-off, IM study with the same total dose (comparative); type: in vivo; conditions: same total dose by IM route, n=130
dairy cow [8] = assay: Inter-teat perimeter (ITP, udder engorgement) at dry-off, IMM study (Example 2); type: in vivo
Description: 10 lactating cows (9 Prim'holstein and 1 Brown Swiss) were included in this study. […] Animal had free access to water and hay throughout the study. Each cow was given 7 kg/day of an antibiotic free concentrate feed for lactating cow until D0 dry off. After dry-off each cow was given 7 kg/day of an antibiotic free concentrate for growing cattle. The composition of concentrate is given hereafter: At D0 dry-off, an abrupt milking cessation was performed. The inter-teat perimeter (ITP) was considered as a proxy of udder volume and engorgement, and was measured before treatment udder, both before and after milking, and then evenly after treatment until 9 days post-treatment.

[9] = tested on: Prim'holstein lactating cows; assay: Cabergoline effect by intramammary (IMM) route on milk production, milking continuation context (Example 1); type: in vivo; conditions: IMM 1.34 mg/quarter in all 4 quarters (5.4 mg/cow, ~7.5 μg/kg) after evening milking D4; n=5; printed as minus 6 L
Description: The cabergoline composition is a solution comprising cabergoline with dimethyl sulfoxide and medium-chain triglycerides, as excipients.
5 Prim'holstein lactating cows were included in the study, with the following characteristics: • Multiparous: parity 2 to 4 • Daily milk yield (L): 17.4+/−2.8 • Days in milk (d): 251+/−51 • Body weight (kg): 686+/−29
Cabergoline was administered as an oily solution as described above, with an intramammary cannula inserted into the teat canal and fitted to the tip of a syringe containing the solution. A volume of 10 mL was directly deposited into the udder cistern of each quarter.
Cows were milked twice a day, morning and evening, at around 07 am and 05 pm respectively.
Milk production (morning milking) was measured during the days before (baseline) and after treatment.
The 5 cows were treated with a dose 1.34 mg/quarter in all 4 quarters (total dose 5.4 mg/cow, corresponding to ˜7.5 μg/kg when expressed according to kg body weight, after evening milking (D4), i.e. 15-20 minutes after the end of milking.

C=CCN1C[C@H](C(=O)N(CCCN(C)C)C(=O)NCC)C[C@@H]2c3cccc4[nH]cc(c34)C[C@H]21 [cabergoline, N-[3-(dimethylamino)propyl]-N-[(ethylamino)carbonyl]-6-(2-propenyl)-8g-ergoline-8-carboxamide]
AUC ([1]; read-out: AUCo-inf, mean (sd)): 2.49 ng·h/mL | Cmax ([1]; read-out: Cmax, mean (sd)): 0.15 ng/mL | MRT ([1]; read-out: MRT, mean (sd)): 22.7 h | Tmax ([1]; read-out: Tmax, mean (sd)): 3 h | decrease of milk production, treated against negative controlled cows (dairy cow [2]): around −40% | time of return of blood calcium to normal [3]: > 24 h | decrease of blood calcium concentration in comparison with control cows, mean ([4]; IMM 1.34 mg/quarter in all 4 quarters, +6 hours time point only): -0.2 mmol/L | blood calcium concentration change at other time points ([4]; IMM, +3 h, +12 h, +24 h and onward): No decrease | predicted effect on milk production reduction (dairy cow [5]): −43% | AUC ([6]; read-out: AUCo-inf, mean (sd)): 4.75 ng·h/mL | Cmax ([6]; read-out: Cmax, mean (sd)): 0.114 ng/mL | MRT ([6]; read-out: MRT, mean (sd)): 36.3 h | Tmax ([6]; read-out: Tmax, mean (sd)): 8.4 h | Mean ΔITP at +24 h after treatment (dairy cow [7]): 9.2 cm | ITP of treated cows versus control after dry-off (dairy cow [8]; IMM 1.34 mg/quarter in all 4 quarters, first 48 hours after treatment, FIG. 2): increased less than control | Mean ΔITP at +24 h after treatment (dairy cow [8]; IMM study, 1.34 mg/quarter in all 4 quarters at D0 dry-off, n=5): 8.3 cm | Mean ΔITP before/after milking, before treatment (dairy cow [8]; IMM study, cabergoline group n=5, baseline before treatment): 13.1 cm | drop of milk production at the next morning milking (D5), mean [9]: 6 L
